Results taken from ChEMBL document CHEMBL1201862, “PubChem BioAssay data set” (2004).
Calls of active or inactive are those of the source.

Tests used:
[1] = intracellular Trypanosoma cruzi inhibitors in host cells – cell-based, plate reader, cherry-pick samples, set 3, dose response (AID 651818); type: functional;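 also: compounds incubated with infected cells for about four days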
[2] = target: T1, Short transient receptor potential channel 4 (Mus musculus, UniProt Q9QUQ5); test: mouse TRPC4 channel inhibitors, dose response, cell-based, HEK293 TRPC4/mu-opioid, Fluo-4 calcium (AID 434942); type: functional;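 also: potency of inhibitors blocking the TRPC4 calcium response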
T1 sequence (Q9QUQ5 whole entry): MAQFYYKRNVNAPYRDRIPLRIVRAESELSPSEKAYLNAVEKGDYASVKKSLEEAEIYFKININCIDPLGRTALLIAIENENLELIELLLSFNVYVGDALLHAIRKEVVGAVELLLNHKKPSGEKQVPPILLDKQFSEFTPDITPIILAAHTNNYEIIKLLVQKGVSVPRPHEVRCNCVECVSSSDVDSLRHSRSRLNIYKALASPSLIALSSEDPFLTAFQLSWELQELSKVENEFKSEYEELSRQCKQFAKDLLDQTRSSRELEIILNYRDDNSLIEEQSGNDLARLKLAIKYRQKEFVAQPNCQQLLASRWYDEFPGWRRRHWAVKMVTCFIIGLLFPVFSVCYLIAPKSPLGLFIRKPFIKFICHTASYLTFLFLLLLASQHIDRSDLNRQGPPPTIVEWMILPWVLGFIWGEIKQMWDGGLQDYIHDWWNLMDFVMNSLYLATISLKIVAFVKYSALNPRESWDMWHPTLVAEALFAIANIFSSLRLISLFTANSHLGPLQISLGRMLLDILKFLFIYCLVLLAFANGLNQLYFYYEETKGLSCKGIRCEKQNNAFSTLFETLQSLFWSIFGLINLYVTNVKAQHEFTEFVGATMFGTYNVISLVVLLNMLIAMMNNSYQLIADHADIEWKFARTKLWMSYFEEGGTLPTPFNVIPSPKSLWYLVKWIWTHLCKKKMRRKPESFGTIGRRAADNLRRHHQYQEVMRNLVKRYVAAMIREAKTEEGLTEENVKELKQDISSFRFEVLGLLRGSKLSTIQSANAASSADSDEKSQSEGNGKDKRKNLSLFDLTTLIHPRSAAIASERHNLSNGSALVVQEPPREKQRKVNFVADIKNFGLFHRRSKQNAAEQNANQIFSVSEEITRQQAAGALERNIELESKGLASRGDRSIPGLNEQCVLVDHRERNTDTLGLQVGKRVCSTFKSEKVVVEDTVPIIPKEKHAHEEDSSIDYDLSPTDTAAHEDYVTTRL

[3] = target: T2, DNA repair and recombination protein RAD54-like (Homo sapiens, UniProt Q92698); test: inhibitors of human RAD54 branch migration, confirmation, biochemical, fluorescence, cherry-picked samples, dose series (AID 651657); type: functional
T2 sequence (Q92698 whole entry): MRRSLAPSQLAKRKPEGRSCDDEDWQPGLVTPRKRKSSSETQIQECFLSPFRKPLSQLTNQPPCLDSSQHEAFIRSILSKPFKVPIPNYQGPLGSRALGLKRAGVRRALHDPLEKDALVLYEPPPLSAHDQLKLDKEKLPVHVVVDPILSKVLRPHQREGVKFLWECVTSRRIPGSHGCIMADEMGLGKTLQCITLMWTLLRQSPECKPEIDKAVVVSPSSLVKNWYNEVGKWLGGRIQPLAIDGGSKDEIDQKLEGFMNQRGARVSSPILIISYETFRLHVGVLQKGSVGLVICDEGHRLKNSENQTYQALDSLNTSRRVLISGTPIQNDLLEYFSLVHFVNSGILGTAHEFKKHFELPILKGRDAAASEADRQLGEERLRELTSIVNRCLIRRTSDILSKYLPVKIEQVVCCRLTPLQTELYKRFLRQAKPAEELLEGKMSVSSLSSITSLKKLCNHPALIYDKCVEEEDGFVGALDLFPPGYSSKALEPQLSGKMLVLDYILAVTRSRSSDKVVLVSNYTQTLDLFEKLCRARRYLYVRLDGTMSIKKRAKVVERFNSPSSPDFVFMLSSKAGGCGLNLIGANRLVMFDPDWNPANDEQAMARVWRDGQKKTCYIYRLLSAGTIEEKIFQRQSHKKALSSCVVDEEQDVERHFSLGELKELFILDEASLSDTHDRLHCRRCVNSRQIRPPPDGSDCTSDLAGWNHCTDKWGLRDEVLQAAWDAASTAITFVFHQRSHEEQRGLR

Cytochrome P450 3A4 = Cytochrome P450 3A4 (Homo sapiens, UniProt P08684); conditions: Potency;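 also: confirmatory qHTS run detecting inhibitors and substrates of CYP3A4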
[4] = growth suppression of beta-catenin-knockout colon cells, dose response, cell-based, HCT116, human colon tumor (AID 1045); type: functional;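 also: HCT116 colon tumor cells with beta catenin knocked out; cells exposed to compound for 60 hours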
[5] = growth suppression of PTEN-null colon cells, dose response, cell-based, HCT116 PTEN knockout (AID 1047); type: functional;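 also: HCT116 colon tumor cells with PTEN knocked out; cells exposed to compound for 60 hours before readout; potency for loss of cell viability measured by luminescence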
Protein RecA = target: T3, Protein RecA (Mycobacterium tuberculosis, UniProt P9WHJ3); test: Fluorescence Cell-Free Homogeneous Dose Retest to Identify Inhibitors of RecA-Intein Splicing Activity. [Related pubchem assays (depositor defined):AID2097, AID2223, AID489010, AID492950]; type: functional
T3 sequence (P9WHJ3 whole entry): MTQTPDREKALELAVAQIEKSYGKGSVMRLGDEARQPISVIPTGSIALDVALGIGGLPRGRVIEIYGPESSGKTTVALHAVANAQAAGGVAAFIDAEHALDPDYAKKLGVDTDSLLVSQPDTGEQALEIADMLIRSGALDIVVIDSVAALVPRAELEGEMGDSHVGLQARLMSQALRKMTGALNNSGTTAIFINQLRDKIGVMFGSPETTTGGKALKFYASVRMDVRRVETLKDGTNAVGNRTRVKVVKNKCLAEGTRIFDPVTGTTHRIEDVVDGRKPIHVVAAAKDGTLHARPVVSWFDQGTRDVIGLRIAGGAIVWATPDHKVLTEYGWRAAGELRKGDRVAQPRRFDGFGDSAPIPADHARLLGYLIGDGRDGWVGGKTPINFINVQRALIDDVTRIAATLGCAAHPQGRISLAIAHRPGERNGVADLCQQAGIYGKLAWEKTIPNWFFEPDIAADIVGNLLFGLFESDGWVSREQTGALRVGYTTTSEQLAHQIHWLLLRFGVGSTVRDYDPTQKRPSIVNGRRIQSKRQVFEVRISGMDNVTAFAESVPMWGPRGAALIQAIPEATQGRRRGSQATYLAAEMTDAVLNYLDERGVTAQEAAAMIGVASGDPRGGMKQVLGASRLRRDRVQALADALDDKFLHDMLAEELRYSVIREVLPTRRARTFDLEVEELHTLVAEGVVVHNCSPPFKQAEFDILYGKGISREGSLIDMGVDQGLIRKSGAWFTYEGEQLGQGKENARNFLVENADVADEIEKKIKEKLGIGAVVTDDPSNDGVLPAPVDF

[6] = target: T4, Replicative DNA helicase DnaB (Mycobacterium tuberculosis, UniProt P9WMR3); test: DnaB intein splicing inhibitors, dose response, biochemical, cell-free fluorescence (AID 449749); type: functional
T4 sequence (P9WMR3 whole entry): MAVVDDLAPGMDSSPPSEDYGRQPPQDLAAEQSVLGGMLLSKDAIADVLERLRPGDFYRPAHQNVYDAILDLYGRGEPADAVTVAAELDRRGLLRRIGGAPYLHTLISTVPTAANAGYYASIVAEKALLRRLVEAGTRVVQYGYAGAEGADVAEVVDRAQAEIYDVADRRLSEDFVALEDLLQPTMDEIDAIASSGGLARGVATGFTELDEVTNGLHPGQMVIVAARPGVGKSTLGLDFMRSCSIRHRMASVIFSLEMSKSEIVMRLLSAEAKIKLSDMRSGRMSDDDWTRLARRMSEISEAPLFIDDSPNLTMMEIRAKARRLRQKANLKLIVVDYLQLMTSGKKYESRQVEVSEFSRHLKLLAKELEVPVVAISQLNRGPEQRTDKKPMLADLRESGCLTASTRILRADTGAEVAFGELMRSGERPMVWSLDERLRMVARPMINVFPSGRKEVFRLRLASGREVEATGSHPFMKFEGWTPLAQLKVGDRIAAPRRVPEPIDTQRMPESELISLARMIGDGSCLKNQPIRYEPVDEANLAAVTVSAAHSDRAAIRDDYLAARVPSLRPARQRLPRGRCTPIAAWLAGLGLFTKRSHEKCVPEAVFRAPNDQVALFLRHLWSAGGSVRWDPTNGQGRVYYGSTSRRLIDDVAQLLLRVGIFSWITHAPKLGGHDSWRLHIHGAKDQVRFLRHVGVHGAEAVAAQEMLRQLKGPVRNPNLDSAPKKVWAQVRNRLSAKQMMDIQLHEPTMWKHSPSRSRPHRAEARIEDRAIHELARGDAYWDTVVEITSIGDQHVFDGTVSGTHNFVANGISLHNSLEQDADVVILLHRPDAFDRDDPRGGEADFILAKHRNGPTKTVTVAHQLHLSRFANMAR

INS1 = test: beta cell apoptosis inhibitors, cytokine rescue, dose response, luminescence, retest (AID 449756); type: functional, cell-based; conditions: Rattus norvegicus;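 also: cell death triggered by IL-1 beta plus TNF-alpha plus IFN-gamma mixture; protective hits raise ATP signal compared with cytokine alone wells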
[7] = inhibitors of firefly luciferase expression or activity, dose response, H4 neuroglioma cells, luminescence (AID 1990); type: functional, cell-based
[8] = Luminescence Cell-Based Dose Response HTS to Identify Inhibitors of 5'UTR Stem-Loop Driven Prion Protein mRNA Translation in H4 Neuroglioblastoma Cells. [Related pubchem assays: 1827 (Project Summary), 1813 (Primary HTS)]; type: functional
[9] = inhibitors of SNCA 5'UTR-driven reporter translation, confirmation, H4 neuroglioma cells, luminescence (AID 1988); type: functional, cell-based
[10] = target: T1, Short transient receptor potential channel 4; test: mouse TRPC4 channel activators, dose response, cell-based, HEK293 TRPC4/mu-opioid, Fluo-4 calcium (AID 434937); type: functional
[11] = ZM109 Env clade C HIV-1 fusion inhibitors, dose response, HeLa effector, CEM target cells, luciferase, cherry-pick (AID 652058); type: functional, cell-based

Chain of Cytochrome P450 3A4 (P08684 whole entry): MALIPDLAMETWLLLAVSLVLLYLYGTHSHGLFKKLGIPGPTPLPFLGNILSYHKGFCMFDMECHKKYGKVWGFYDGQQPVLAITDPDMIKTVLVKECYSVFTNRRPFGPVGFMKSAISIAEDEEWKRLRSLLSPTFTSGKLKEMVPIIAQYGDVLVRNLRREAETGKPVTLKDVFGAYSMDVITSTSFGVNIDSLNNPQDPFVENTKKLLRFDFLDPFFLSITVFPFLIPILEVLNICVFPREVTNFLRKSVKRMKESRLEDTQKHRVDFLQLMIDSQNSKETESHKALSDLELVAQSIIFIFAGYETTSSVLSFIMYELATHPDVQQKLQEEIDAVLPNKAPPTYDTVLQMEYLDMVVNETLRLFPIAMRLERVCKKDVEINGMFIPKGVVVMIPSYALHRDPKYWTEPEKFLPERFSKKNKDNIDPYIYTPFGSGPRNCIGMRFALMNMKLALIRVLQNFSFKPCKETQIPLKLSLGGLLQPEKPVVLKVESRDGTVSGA

SMILES: C[C@@H]1CN([C@H](C)CO)C(=O)c2cccc(NC(=O)C3CCCCC3)c2O[C@H]1CN(C)Cc1ccc(C(F)(F)F)cc1
- AC50 [1]: 2.83 µM (active)

SMILES: Cc1cccc(CN2CCCC(C(=O)Nc3ccccc3Oc3cccnc3)C2)c1 (stereo unspecified)
- EC50 [2]: 4.22 µM (active)

SMILES: Cc1ccc(N(CC(=O)NC2CCCC2)C(=O)CNC(=O)c2cccs2)cc1F
- EC50 [2]: 5.96 µM (active)

SMILES: C[C@@H]1CN([C@H](C)CO)C(=O)c2cccc(NC(=O)CCCCCC(=O)Nc3ccccc3N)c2O[C@H]1CN(C)Cc1ccc(-c2ccccc2)cc1
- AC50 [1]: 2.18 µM (active)

SMILES: Cc1nc2ccccc2c2oc(C(=O)NCCN3CCN(C)CC3)cc12
- AC50 [3]: 39.9 µM (active)

SMILES: COC(=O)C/N=C1/OC(=O)N2C(=O)C3=C4[C@@H](C[C@H]5C(=O)N(c6ccccc6)C(=O)[C@H]5[C@H]4[C@@]12Cc1ccccc1)[C@H]1C(=O)N(c2ccccc2)C(=O)[C@H]1[C@H]3C
- AC50 (Cytochrome P450 3A4): 6.31 µM (inconclusive)

SMILES: CCCn1c(-c2ccc(F)cc2)nc2c(NCCCN(CCO)CCO)nc(C)nc21
- AC50 (Cytochrome P450 3A4): 15.8 µM (inconclusive)

SMILES: CCCCNC(=O)CCn1c(=O)c2ccccc2n(Cc2ccc(Cl)cc2)c1=O
- EC50 [4]: 19.5 µM (active)
- EC50 [5]: 18 µM (active)

SMILES: Cc1nn(C(=O)CNS(=O)(=O)c2ccccc2)c(C)c1Sc1ccc(Cl)cc1
- EC50 (Protein RecA): 17.2 µM (active)
- AC50 [6]: 4.2 µM (active)
- EC50 [2]: 1.33 µM (active)

SMILES: CCCc1nc(C(C)(C)O)c(C(=O)OCc2oc(=O)oc2C)n1Cc1ccc(-c2ccccc2-c2nnn[nH]2)cc1 [OLMESARTAN MEDOXOMIL]
- AC50 (Cytochrome P450 3A4): 25.1 µM (inconclusive)

SMILES: Cc1ccn2c(CNCCCn3cccn3)c(C(=O)N3CCCCCC3)nc2c1
- EC50 [2]: 2.11 µM (active)

SMILES: Cc1ccc(S(=O)(=O)Nc2ccc3c(c2)CC(=O)N([C@H](C)CO)C[C@@H](C)[C@@H](CN(C)S(=O)(=O)c2ccccc2)O3)cc1
- AC50 [1]: 2.27 µM (active)

SMILES: FC(F)(F)c1ccc(CN2C[C@@H]3C(c4ccc(C(F)(F)F)cc4)C4(c5cccnc5)CC3(C4)[C@H]2c2ccccc2)cc1 (stereo partly specified)
- AC50 (Cytochrome P450 3A4): 31.6 µM (inconclusive)
- AC50 (INS1): 6.2 µM (active)

SMILES: CCN(CC)CCN=C(S)Nc1ccc2nc(N3CCN(CC)CC3)cc(C)c2c1
- AC50 [3]: 15.3 µM (active)

SMILES: Nc1cc(N2CCCCC2)c([N+](=O)[O-])cc1Cl
- EC50 [2]: 5.31 µM (active)

SMILES: CCCCCN1C2=NCCN2c2ccccc21
- EC50 [2]: 0.841 µM (active)

SMILES: COc1ccc(C(=O)CN2CCN(CCN3C(=O)c4cccc5cccc(c45)C3=O)CC2)cc1
- AC50 [3]: 8.03 µM (active)
- EC50 [7]: 13.4 µM (active)
- EC50 [8]: > 120 µM (not active)
- EC50 [9]: 15.3 µM (active)

SMILES: CCCCN(CC)S(=O)(=O)c1ccc(C(=O)/N=c2\sc3cc(NC(C)=O)ccc3n2C)cc1
- EC50 [4]: 10.2 µM (active)
- EC50 [5]: 17.1 µM (active)

SMILES: CCOC(=O)C1(CC2CC2)CCN(Cc2c[nH]nc2-c2ccccc2)CC1
- EC50 [10]: 1.33 µM (active)
- EC50 [2]: 0.944 µM (active)

SMILES: Cc1cc(Nc2ccc3c(c2)OCCO3)c2cccc(C)c2n1
- AC50 [3]: 13.9 µM (active)

SMILES: C[C@@H]1CN([C@@H](C)CO)C(=O)c2cc(NS(=O)(=O)c3ccccc3)ccc2O[C@H]1CN(C)Cc1ccc(C(=O)Nc2ccccc2N)cc1
- AC50 [1]: 4.83 µM (active)

SMILES: CCCCNc1nc(C)nc2c1nc(-c1ccccc1)n2CC1CCN(C)CC1
- AC50 (Cytochrome P450 3A4): 15.8 µM (inconclusive)

SMILES: COc1cccc(S(=O)(=O)N[C@@H]2CC[C@H](CCN)O[C@H]2CO)c1
- AC50 [11]: 1.26 µM (active)

SMILES: CC1(C)C(O)C=C[C@@]2(C)C1CC(=O)O[C@@]1(C)C3=CC(=O)OC(c4ccoc4)[C@]3(C)CCC21 (stereo partly specified)
- AC50 (Cytochrome P450 3A4): 2 µM (inconclusive)

SMILES: CC(=O)OCC1OC(Oc2cc(OC(C)=O)c3c(=O)cc(-c4ccc(OC(C)=O)cc4)oc3c2)[C@@H](OC(C)=O)C(OC(C)=O)C1OC(C)=O (stereo partly specified)
- AC50 (Cytochrome P450 3A4): 10 µM (inconclusive)

SMILES: CCOC(=O)c1c(C)[nH]c(C(=O)OCC(=O)Nc2cc(C)c(Cl)cc2OC)c1C
- EC50 [4]: 16.2 µM (active)
- EC50 [5]: 12.8 µM (active)
